Patent US12415785B2, “Compound modulators of sting” (CTXT PTY LTD, priority 2019, dated 2025)

Experiments:
human STING (HAQ) [1] = assay: Differential scanning fluorimetry (DSF), huSTING (HAQ); format: binding; details: 2 μM protein, compound 100 μM; Tm with ligand minus Tm of protein alone (1% DMSO)
Protocol: (§1) Biophysical experiments were performed with three different recombinant human STING protein variants designated according to allelic nomenclature of Yi et al., (2013). […] These were ligated into a modified pET43a E. coli expression vector designed to encode N-terminal His tag followed by tobacco etch virus protease (TEV) cleavage site and a STING gene sequence. The resulting protein sequences for the three allelic variants are listed below: […] Cultures were then cooled to 16° C. and protein expression induced by the addition of isopropyl β-D-1-thiogalactopyranoside to a final concentration of 0.5 mM and the cultures shaken overnight for further 16 hours. Following expression, cell cultures were centrifuged at 5000×g for 20 min and cell pellet stored frozen at −70° C. Protein purification was initiated by thawing the cell pellet in Lysis buffer (25 mM Tris-HCl pH 8.0, 300 mM NaCl, 5 mM DTT, 2 mM MgCl2, 10 mM imidazole, 0.5 mg/ml lysozyme, benzonase endonuclease [EMD Millipore], 1 mM PMSF, complete protease inhibitor tablets EDTA-free [Roche]) using a ratio of 7 ml of buffer per 1 g of cells. Cells were further lysed by 3 passes through an ice cooled Avestin C5 cell crusher and then centrifuged at 48,000×g at 4° C. […] The IMAC column was then sequentially washed with IMAC Wash buffer 1 and IMAC Wash buffer 2 (25 mM Tris-HCl pH 8.0, 300 mM NaCl, 5 mM DTT, 20 mM Imidazole) and bound His-TEV-hSTING protein eluted with IMAC Elution buffer (25 mM Tris-HCl pH 8.0, 300 mM NaCl, 5 mM DTT, 250 mM Imidazole). […] Differential scanning fluorimetry (DSF) is a rapid screening method for identifying low-molecular-weight ligands that bind and, in doing so, stabilize (or sometimes destabilize) purified proteins (Niesen 2007). DSF monitors thermal unfolding of protein in the presence of a fluorescent dye and is typically performed using a real-time PCR instrument. The temperature at which a protein unfolds is measured by an increase in the fluorescence of a dye with affinity for hydrophobic parts of the protein that are gradually being exposed during unfolding. The fluorescence of the dye is quenched in aqueous environments, but when the dye associates with hydrophobic sites on unfolded protein, its fluorescence increases. The fluorescence intensity is plotted as a function of the temperature, generating a sigmoidal curve that can be described by a two-state transition. The inflection point of the transition curve (Tm) is calculated using simple equations such as that of Boltzmann. Thermal stability of STING protein (with and without bound ligand) was measured using previously described methodology (Seabrook & Newman, 2013), with samples tested in triplicate using 96-well PCR microplate (AB Gene, ABGAB-0600/W). […] Sealed plates were placed into Bio-Rad CFX96/C1000 thermocycler and FRET scanning mode (λ^excitation of 490 nm and reads at a λ^emission of 570 nm). Melting curves were recorded from 20° C. to 100° C. in 0.5° C. increments every 30 seconds with a read at each increment. Data were analysed using “Meltdown analysis” protocol described by Rosa (2015).

human STING (HAQ) [2] = target: human STING (HAQ) (Homo sapiens, UniProt Q86WV6, G230A/H232R/R293Q); assay: as above; format: binding; details: 2 μM protein, compound 100 μM; Tm with ligand minus Tm of protein alone (1% DMSO); read-out: DSF huSTING (HAQ) ΔTm (° C.)
Chain of human STING (HAQ) (Homo sapiens, UniProt Q86WV6, G230A/H232R/R293Q) (Q86WV6 whole entry G230A/H232R/R293Q, looked up): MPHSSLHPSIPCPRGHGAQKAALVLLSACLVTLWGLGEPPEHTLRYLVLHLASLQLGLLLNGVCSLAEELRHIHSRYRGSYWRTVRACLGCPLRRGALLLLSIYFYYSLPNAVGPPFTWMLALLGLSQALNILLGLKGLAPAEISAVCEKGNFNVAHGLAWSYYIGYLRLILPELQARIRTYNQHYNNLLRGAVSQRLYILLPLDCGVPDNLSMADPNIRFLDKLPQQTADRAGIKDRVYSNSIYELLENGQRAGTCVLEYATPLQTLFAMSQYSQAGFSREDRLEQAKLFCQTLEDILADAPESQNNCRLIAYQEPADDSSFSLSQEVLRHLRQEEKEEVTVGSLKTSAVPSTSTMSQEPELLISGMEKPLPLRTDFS
Protocol: as §1

| Structure (SMILES) | DSF huSTING (HAQ) ΔTm (° C.) (human STING (HAQ) [1]) | ΔTm at 100 µM (human STING (HAQ) [2]) |
| --- | --- | --- |
| NC(=O)c1ccc2c(c1)nc(-c1c(Br)cccc1C(=O)O)n2CCn1c(-c2c(Br)cccc2C(=O)O)nc2cc(C(N)=O)ccc21 (single isomer, unassigned) [Example 29.1, 2,2′-(Ethane-1,2-diylbis(5-carbamoyl-1H-benzo[d]imidazole-1,2-diyl))bis(3-bromobenzoic acid)] | 7.46 °C |  |
| COc1c(C(N)=O)ccc2c1nc(-c1cnccc1C(=O)O)n2CCn1c(-c2cnccc2C(=O)O)nc2c(OC)c(C(N)=O)ccc21 [Example 30, 3,3′-(Ethane-1,2-diylbis(5-carbamoyl-4-methoxy-1H-benzo[d]imidazole-1,2-diyl))diisonicotinic acid] |  | 2.14 °C |
| COc1c(C(N)=O)ccc2c1nc(-c1ncc(Cl)cc1C(=O)O)n2CCn1c(-c2ncc(Cl)cc2C(=O)O)nc2c(OC)c(C(N)=O)ccc21 [Example 31, 2,2′-(Ethane-1,2-diylbis(5-carbamoyl-4-methoxy-1H-benzo[d]imidazole-1,2-diyl))bis(5-chloronicotinic acid)] |  | 3.98 °C |
| COc1c(C(N)=O)ccc2c1nc(-c1ccc(Cl)cc1-c1noc(=O)[nH]1)n2CCn1c(-c2ccc(Cl)cc2-c2noc(=O)[nH]2)nc2c(OC)c(C(N)=O)ccc21 [Example 32, 1,1′-(Ethane-1,2-diyl)bis(2-(4-chloro-2-(5-oxo-4,5-dihydro-1,2,4-oxadiazol-3-yl)phenyl)-4-methoxy-1H-benzo[d]imidazole-5-carboxamide)] |  | 3.99 °C |
| CCc1ccc(-c2nc3c(OC)c(C(N)=O)ccc3n2CCn2c(-c3ccc(CC)cc3C(=O)O)nc3c(OC)c(C(N)=O)ccc32)c(C(=O)O)c1 [Example 33, 6,6′-(Ethane-1,2-diylbis(5-carbamoyl-4-methoxy-1H-benzo[d]imidazole-1,2-diyl))bis(3-ethylbenzoic acid)] |  | 4.06 °C |
| COc1c(C(N)=O)ccc2c1nc(-c1ccc(Cl)cc1C(=O)O)n2C/C=C/Cn1c(-c2ccc(Cl)cc2C(=O)O)nc2c(OC)c(C(N)=O)ccc21 [Example 34, (E)-6,6′-(But-2-ene-1,4-diylbis(5-carbamoyl-4-methoxy-1H-benzo[d]imidazole-1,2-diyl))bis(3-chlorobenzoic acid)] |  | 0.49 °C |
| COc1c(C(N)=O)ccc2c1nc(-c1ccc(Cl)cc1C(=O)O)n2CCCn1c(-c2ccc(Cl)cc2C(=O)O)nc2c(OC)c(C(N)=O)ccc21 [Example 35, 6,6′-(Propane-1,3-diylbis(5-carbamoyl-4-methoxy-1H-benzo[d]imidazole-1,2-diyl))bis(3-chlorobenzoic acid)] |  | 1.28 °C |
| COc1c(C(N)=O)ccc2c1nc(-c1cccc(Br)c1C(=O)O)n2CCn1c(-c2cccc(Br)c2C(=O)O)nc2c(OC)c(C(N)=O)ccc21 [Example 36, 6,6′-(Ethane-1,2-diylbis(5-carbamoyl-4-methoxy-1H-benzo[d]imidazole-1,2-diyl))bis(2-bromobenzoic acid)] |  | 5.24 °C |
| COc1c(C(N)=O)ccc2c1nc(-c1cccc(Cl)c1-c1nn[nH]n1)n2CCn1c(-c2cccc(Cl)c2-c2nn[nH]n2)nc2c(OC)c(C(N)=O)ccc21 [Example 40, 1,1′-(Ethane-1,2-diyl)bis(2-(3-chloro-2-(2H-tetrazol-5-yl)phenyl)-4-methoxy-1H-benzo[d]imidazole-5-carboxamide)] |  | -1.74 °C |
| COc1ccc(-c2nc3c(OC)c(C(N)=O)ccc3n2CCn2c(-c3ccc(OC)cc3C(=O)O)nc3c(OC)c(C(N)=O)ccc32)c(C(=O)O)c1 [Example 41, 6,6′-(Ethane-1,2-diylbis(5-carbamoyl-4-methoxy-1H-benzo[d]imidazole-1,2-diyl))bis(3-methoxybenzoic acid)] |  | 4.52 °C |
| COc1c(C(N)=O)ccc2c1nc(-c1cc(Cl)ccc1-c1nn[nH]n1)n2CCn1c(-c2cc(Cl)ccc2-c2nn[nH]n2)nc2c(OC)c(C(N)=O)ccc21 [Example 42, 1,1′-(Ethane-1,2-diyl)bis(2-(5-chloro-2-(2H-tetrazol-5-yl)phenyl)-4-methoxy-1H-benzo[d]imidazole-5-carboxamide)] |  | 6.3 °C |
| COc1c(C(N)=O)ccc2c1nc(-c1c(F)cc(F)cc1-c1nn[nH]n1)n2CCn1c(-c2c(F)cc(F)cc2-c2nn[nH]n2)nc2c(OC)c(C(N)=O)ccc21 [Example 43, 1,1′-(Ethane-1,2-diyl)bis(2-(2,4-difluoro-6-(2H-tetrazol-5-yl)phenyl)-4-methoxy-1H-benzo[d]imidazole-5-carboxamide)] |  | 22.2 °C |
| COc1c(C(N)=O)ccc2c1nc(-c1c(F)cc(F)cc1-c1n[nH]c(=O)o1)n2CCn1c(-c2c(F)cc(F)cc2-c2n[nH]c(=O)o2)nc2c(OC)c(C(N)=O)ccc21 [Example 44, 1,1′-(Ethane-1,2-diyl)bis(2-(2,4-difluoro-6-(5-oxo-4,5-dihydro-1,3,4-oxadiazol-2-yl)phenyl)-4-methoxy-1H-benzo[d]imidazole-5-carboxamide)] |  | 13.1 °C |
| COc1c(C(N)=O)ccc2c1nc(-c1c(F)cc(Cl)cc1Br)n2CCn1c(-c2c(F)cc(Cl)cc2Br)nc2c(OC)c(C(N)=O)ccc21 [Example 45, 1,1′-(Ethane-1,2-diyl)bis(2-(2-bromo-4-chloro-6-fluorophenyl)-4-methoxy-1H-benzo[d]imidazole-5-carboxamide)] |  | 1.24 °C |
| COc1c(C(N)=O)ccc2c1nc(-c1c(F)cc(Cl)cc1-c1nn[nH]n1)n2CCn1c(-c2c(F)cc(Cl)cc2-c2nn[nH]n2)nc2c(OC)c(C(N)=O)ccc21 [Example 46, 1,1′-(Ethane-1,2-diyl)bis(2-(4-chloro-2-fluoro-6-(2H-tetrazol-5-yl)phenyl)-4-methoxy-1H-benzo[d]imidazole-5-carboxamide)] |  | 28.6 °C |
| COc1c(C(N)=O)ccc2c1nc(-c1c(F)cccc1-c1nn[nH]n1)n2CCn1c(-c2c(F)cccc2-c2nn[nH]n2)nc2c(OC)c(C(N)=O)ccc21 [Example 48, 1,1′-(Ethane-1,2-diyl)bis(2-(2-fluoro-6-(2H-tetrazol-5-yl)phenyl)-4-methoxy-1H-benzo[d]imidazole-5-carboxamide)] |  | 25.5 °C |
| COc1c(C(N)=O)ccc2c1nc(-c1c(F)cccc1-c1n[nH]c(=O)o1)n2CCn1c(-c2c(F)cccc2-c2n[nH]c(=O)o2)nc2c(OC)c(C(N)=O)ccc21 [Example 49, 1,1′-(Ethane-1,2-diyl)bis(2-(2-fluoro-6-(5-oxo-4,5-dihydro-1,3,4-oxadiazol-2-yl)phenyl)-4-methoxy-1H-benzo[d]imidazole-5-carboxamide)] |  | 21.3 °C |
| COc1c(C(N)=O)ccc2c1nc(-c1c(F)cc(Cl)cc1-c1n[nH]c(=O)o1)n2CCn1c(-c2c(F)cc(Cl)cc2-c2n[nH]c(=O)o2)nc2c(OC)c(C(N)=O)ccc21 [Example 50, 1,1′-(Ethane-1,2-diyl)bis(2-(4-chloro-2-fluoro-6-(5-oxo-4,5-dihydro-1,3,4-oxadiazol-2-yl)phenyl)-4-methoxy-1H-benzo[d]imidazole-5-carboxamide)] |  | 26.4 °C |
